As usually defined, the IC50 is the concentration at which inhibition is half-maximal.

Common to all, as to assay type: cell-based
Test [1] concerns human gastric cancer cells NCI-N87. Description: Tumor cell growth inhibitory activity (CCK-8), NCI-N87. To be noted: Homo sapiens; NCI-N87 cells, 72 h incubation, CCK-8; read-out: IC50 (nM) for inhibiting the growth of tumor cells, NCI-N87. The procedure:
(§1) Human esophageal cancer cells OE33 (human breast adenocarcinoma cells SK-BR-3, or human gastric cancer cells NCI-N87) was cultured in RPMI1640 (Cellmax) supplemented with 10% fetal bovine serum (Cellmax). Cells in the exponential growth phase were diluted to a concentration of 1×10^5 cells/mL by culture medium and added to 96-well cell culture plates at 100 μL per well, then returned back and incubated overnight in a 37° C. incubator with 5% CO2. On the following day, the compounds were diluted to concentrations of 10000 nM, 2000 nM, 400 nM, 80 nM, 16 nM, 3.2 nM, 0.64 nM, and 0.13 nM by culture medium and the diluted compounds were added to the 96-well cell culture plates at 2 μL per well, with three replicate wells for each concentration. Negative control and blank control groups without addition of compounds were added with 2 μL of the dilution liquid per well. After the addition of the compounds, the plates were returned back to the 37° C. incubator with 5% CO2 to continue the incubation for 72 h. After the incubation, the cell culture plates were removed, and the culture medium was aspirated using a pipette. Then, 100 μL of culture medium containing 10% CCK-8 was added to each well, and the plates were incubated at 37° C. for 3 h. After the incubation, the plates were removed, kept in the dark, and placed in an ELISA plate. Absorbance was measured at 630 nm as the reference wavelength and 450 nm as the test wavelength. The IC50 values (Table 2) were calculated using the four-parameter logistic regression method in GraphPad.

The test system of a further test is MDA-MB-231. Description: Tumor cell growth inhibitory activity, MDA-MB-231. The settings on record: Homo sapiens; MDA-MB-231 cells; read-out: IC50 (nM) for inhibiting the growth of tumor cells, MDA-MB-231.
The test system of the next test is NCI-H1975. Description: Tumor cell growth inhibitory activity, NCI-H1975. To be noted: Homo sapiens; NCI-H1975 cells; read-out: IC50 (nM) for inhibiting the growth of tumor cells, NCI-H1975.
In test [2] the test system is Human esophageal cancer cells OE33. Description: Tumor cell growth inhibitory activity (CCK-8), OE33. The settings on record: Homo sapiens; OE33 cells, 72 h incubation, CCK-8; read-out: IC50 (nM) for inhibiting the growth of tumor cells, OE33. The procedure: as §1
In test [3] the test system is human breast adenocarcinoma cells SK-BR-3. Description: Tumor cell growth inhibitory activity (CCK-8), SK-BR-3. To be noted: Homo sapiens; SK-BR-3 cells, 72 h incubation, CCK-8; read-out: IC50 (nM) for inhibiting the growth of tumor cells, SK-BR-3. Here is the method: as §1

In the case of `C[C@@]1(O)C(=O)OCc2c1cc1n(c2=O)Cc2c-1nc1cc3c(cc1c2CCNC(=O)C(F)F)OCO3` [Compound 36, 7-(2-Difluoroacetylamino)ethyl-10,11-methylenedioxycamptothecin], the IC50 was determined as 7.66 nM in test [1]; 110 nM in the test on MDA-MB-231; 38.7 nM in the test with NCI-H1975; 7.24 nM in test [2]; 2.8 nM in test [3].

The values above are taken from patent US20260042774A1, “CAMPTOTHECIN-7-ETHYLAMINE DERIVATIVE, PREPARATION METHOD THEREFOR, AND USE THEREOF” (HANGZHOU ADCORIS BIOPHARMA CO., LTD, priority 2022, published 2026).
